Measured values: patent US20100286145A1, “ISOPHTHALAMIDE DERIVATIVES INHIBITING BETA-SECRETASE ACTIVITY” (CoMentis, Inc., priority 2007, published 2010)

Columns and labels:
memapsin 2 = memapsin 2 (Homo sapiens, UniProt P56817); assay: Inhibition of memapsin 2 beta-secretase activity (fluorogenic substrate FS-2); type: biochemical; conditions: memapsin 2, pH 4, 37° C., 20 minutes pre-incubation; read-out: M2Ki
In short: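 Kinetic fluorogenic assay: hydrolysis of the MCA/DNP-labelled APP Swedish-variant peptide FS-2 monitored as fluorescence rise at 37° C, pH 4, after 20 min enzyme–compound preincubation. Relative rates fitted with a tight-binding inhibitor model.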

[1] = system: Aβ production in Chinese hamster ovary cells that over-express human APP695 with the London and Swedish mutations; assay: Cellular Aβ IC50 determination (Aβ40 sandwich ELISA); type: cell-based; conditions: Cricetulus griseus; cellular Aβ production; read-out: IC50
Procedure: The potency of compounds against memapsin 2 activity was determined in a cellular assay of Aβ production. […] Chinese hamster ovary cells that over-express human APP695 with the London and Swedish mutations were seeded in multi-well plates at 10% confluency. Compounds are dissolved in DMSO to concentrations near 1 mM, and diluted into culture media to a final concentration near 4 μM (final 0.4% DMSO). […] Aliquots were removed and assayed for Aβ40 content using a sandwich ELISA (BioSource International). Amount of Aβ40 over the range of concentration of compounds, relative to control incubations, were fit to a 4-parameter IC50 model.

Sequence of memapsin 2 (P56817 46-501): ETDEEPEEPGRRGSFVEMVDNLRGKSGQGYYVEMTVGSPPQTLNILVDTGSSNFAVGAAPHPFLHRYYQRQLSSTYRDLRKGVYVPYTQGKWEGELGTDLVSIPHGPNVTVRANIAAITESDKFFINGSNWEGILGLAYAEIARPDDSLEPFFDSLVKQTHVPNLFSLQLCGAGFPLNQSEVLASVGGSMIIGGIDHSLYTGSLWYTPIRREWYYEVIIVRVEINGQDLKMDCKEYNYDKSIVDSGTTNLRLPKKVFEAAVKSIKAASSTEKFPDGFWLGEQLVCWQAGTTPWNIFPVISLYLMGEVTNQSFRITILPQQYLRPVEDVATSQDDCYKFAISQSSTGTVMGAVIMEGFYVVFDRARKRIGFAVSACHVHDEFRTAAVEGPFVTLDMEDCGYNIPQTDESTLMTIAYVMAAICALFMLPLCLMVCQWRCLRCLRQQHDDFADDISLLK

| SMILES | Ki (memapsin 2) [nM] | IC50 [1] [nM] |
| --- | --- | --- |
| Cc1csc(CN(C)C(=O)c2cccc(C(=O)N[C@@H](Cc3ccccc3)[C@H](O)CNCc3cccc(C(C)C)n3)c2)n1 [Compound 10, N1-((2S,3R)-3-hydroxy-4-((6-isopropylpyridin-2-yl)methylamino)-1-phenylbutan-2-yl)-N3-methyl-N3-((4-methylthiazol-2-yl)methyl)isophthalamide] | < 300 | < 1000 |
| CCCN(Cc1nc(C)cs1)C(=O)c1cccc(C(=O)N[C@@H](Cc2ccccc2)[C@H](O)CNCc2cccc(OC)c2)c1 [Compound 11, N1-((2S,3R)-3-hydroxy-4-(3-methoxybenzylamino)-1-phenylbutan-2-yl)-N3-((4-methylthiazol-2-yl)methyl)-N3-propylisophthalamide] | < 300 | < 1000 |
| Cc1csc(CN(C)C(=O)c2cccc(C(=O)N[C@@H](Cc3ccccc3)[C@H](O)CNCc3cccc(C4CC4)c3)c2)n1 [Compound 12, N1-((2S,3R)-4-(3-cyclopropylbenzylamino)-3-hydroxy-1-phenylbutan-2-yl)-N3-methyl-N3-((4-methylthiazol-2-yl)methyl)isophthalamide] | < 300 | < 1000 |
| CCN(Cc1nc(C)cs1)C(=O)c1cc(OC)cc(C(=O)N[C@@H](Cc2ccccc2)[C@H](O)CNCc2cccc(OC)c2)c1 [Compound 16, N1-ethyl-N3-((2S,3R)-3-hydroxy-4-(3-methoxybenzylamino)-1-phenylbutan-2-yl)-5-methoxy-N1-((4-methylthiazol-2-yl)methyl)isophthalamide] | < 300 | < 1000 |
| COc1cccc(CNC[C@@H](O)[C@H](Cc2ccccc2)NC(=O)c2cccc(C(=O)N(C)Cc3ccc(C)o3)c2)c1 [Compound 18, N1-((2S,3R)-3-hydroxy-4-(3-methoxybenzylamino)-1-phenylbutan-2-yl)-N3-methyl-N3-((5-methylfuran-2-yl)methyl)isophthalamide] | 301 to 500 | < 1000 |
| COc1cccc(CNC[C@@H](O)[C@H](Cc2ccccc2)NC(=O)c2cc(C(=O)O)cc(C(=O)N(C)Cc3nc(C)cs3)c2)c1 [Compound 19, 3-((2S,3R)-3-hydroxy-4-(3-methoxybenzylamino)-1-phenylbutan-2-ylcarbamoyl)-5-(methyl((4-methylthiazol-2-yl)methyl)carbamoyl)benzoic acid] | < 300 | < 1000 |
| COc1cccc(CNC[C@@H](O)[C@H](Cc2ccccc2)NC(=O)c2cc(OC)cc(C(=O)N(Cc3nc(C)cs3)C(C)C)c2)c1 [Compound 25, N1-((2S,3R)-3-hydroxy-4-(3-methoxybenzylamino)-1-phenylbutan-2-yl)-N3-isopropyl-5-methoxy-N3-((4-methylthiazol-2-yl)methyl)isophthalamide] | < 300 | < 1000 |
| Cc1csc(CN(C)C(=O)c2cccc(C(=O)N[C@@H](Cc3ccccc3)[C@H](O)CNCc3cncc(C4CC4)c3)c2)n1 [Compound 30, N1-((2S,3R)-4-((5-cyclopropylpyridin-3-yl)methylamino)-3-hydroxy-1-phenylbutan-2-yl)-N3-methyl-N3-((4-methylthiazol-2-yl)methyl)isophthalamide] | < 300 | < 1000 |
| COc1cccc(CNC[C@@H](O)[C@H](Cc2ccccc2)NC(=O)c2cc(N)cc(C(=O)N(C)Cc3nc(C)cs3)c2)c1 [Compound 34, 5-amino-N1-((2S,3R)-3-hydroxy-4-(3-methoxybenzylamino)-1-phenylbutan-2-yl)-N3-methyl-N3-((4-methylthiazol-2-yl)methyl)isophthalamide] | > 501 | 1000 to 5000 |
| COc1cccc(CNC[C@@H](O)[C@H](Cc2ccccc2)NC(=O)c2cc(C(=O)NCCO)cc(C(=O)N(C)Cc3nc(C)cs3)c2)c1 [Compound 44, N1-((2S,3R)-3-hydroxy-4-(3-methoxybenzylamino)-1-phenylbutan-2-yl)-N3-(2-hydroxyethyl)-N5-methyl-N5-((4-methylthiazol-2-yl)methyl)benzene-1,3,5-tricarboxamide] | < 300 | < 1000 |
| COc1cccc(CNC[C@@H](O)[C@H](Cc2ccccc2)NC(=O)c2cc(CO)cc(C(=O)N(C)Cc3nc(C)cs3)c2)c1 [Compound 49, N1-((2S,3R)-3-hydroxy-4-(3-methoxybenzylamino)-1-phenylbutan-2-yl)-5-(hydroxymethyl)-N3-methyl-N3-((4-methylthiazol-2-yl)methyl)isophthalamide] | < 300 | < 1000 |
| Cc1csc(CN(C(=O)c2cccc(C(=O)N[C@@H](Cc3ccccc3)[C@H](O)CNCc3cccc(OC(F)(F)F)c3)c2)C2CC2)n1 [Compound 51, N1-cyclopropyl-N3-((2S,3R)-3-hydroxy-1-phenyl-4-(3-(trifluoromethoxy)benzylamino)butan-2-yl)-N1-((4-methylthiazol-2-yl)methyl)isophthalamide] | < 300 | < 1000 |
| COc1cc(C(=O)N[C@@H](Cc2ccccc2)[C@H](O)CNCc2ccnc(C(C)C)c2)cc(C(=O)N(C)Cc2nc(C)cs2)c1 [Compound 53, N1-((2S,3R)-3-hydroxy-4-((2-isopropylpyridin-4-yl)methylamino)-1-phenylbutan-2-yl)-5-methoxy-N3-methyl-N3-((4-methylthiazol-2-yl)methyl)isophthalamide] | < 300 | < 1000 |

The next lines start with the values.

| Ki (memapsin 2) [nM] | IC50 [1] [nM] | SMILES |
| --- | --- | --- |
| < 300 | < 1000 | C=C(C)c1cncc(CNC[C@@H](O)[C@H](Cc2ccccc2)NC(=O)c2cccc(C(=O)N(C)Cc3nc(C)cs3)c2)c1 [Compound 22, N1-((2S,3R)-3-hydroxy-1-phenyl-4-((5-(prop-1-en-2-yl)pyridin-3-yl)methylamino)butan-2-yl)-N3-methyl-N3-((4-methylthiazol-2-yl)methyl)isophthalamide] |
| < 300 | < 1000 | Cc1csc(CN(C)C(=O)c2cccc(C(=O)N[C@@H](Cc3ccccc3)[C@H](O)CNCc3cncc(C(F)(F)F)c3)c2)n1 [Compound 23, N1-((2S,3R)-3-hydroxy-1-phenyl-4-((5-(trifluoromethyl)pyridin-3-yl)methylamino)butan-2-yl)-N3-methyl-N3-((4-methylthiazol-2-yl)methyl)isophthalamide] |
| > 501 | > 5000 | Cc1csc(CN(C)C(=O)c2cccc(C(=O)N[C@@H](Cc3ccccc3)[C@H](O)CNCc3ccncc3)c2)n1 [Compound 26, N1-((2S,3R)-3-hydroxy-1-phenyl-4-(pyridin-4-ylmethylamino)butan-2-yl)-N3-methyl-N3-((4-methylthiazol-2-yl)methyl)isophthalamide] |
| < 300 | < 1000 | Cc1csc(CN(C)C(=O)c2cccc(C(=O)N[C@@H](Cc3ccccc3)[C@H](O)CNCc3cc(C(F)(F)F)cc(C(F)(F)F)c3)c2)n1 [Compound 27, N1-((2S,3R)-4-(3,5-bis(trifluoromethyl)benzylamino)-3-hydroxy-1-phenylbutan-2-yl)-N3-methyl-N3-((4-methylthiazol-2-yl)methyl)isophthalamide] |
| < 300 | < 1000 | Cc1csc(CN(C)C(=O)c2cccc(C(=O)N[C@@H](Cc3ccccc3)[C@H](O)CNCc3cc(F)cc(C(F)(F)F)c3)c2)n1 [Compound 28, N1-((2S,3R)-4-(3-fluoro-5-(trifluoromethyl)benzylamino)-3-hydroxy-1-phenylbutan-2-yl)-N3-methyl-N3-((4-methylthiazol-2-yl)methyl)isophthalamide] |
| < 300 | < 1000 | COc1cc(C(=O)N[C@@H](Cc2ccccc2)[C@H](O)CNCc2cccc(C(F)(F)F)c2)cc(C(=O)N(C)Cc2nc(C)cs2)c1 [Compound 31, N1-((2S,3R)-3-hydroxy-1-phenyl-4-(3-(trifluoromethyl)benzylamino)butan-2-yl)-5-methoxy-N3-methyl-N3-((4-methylthiazol-2-yl)methyl)isophthalamide] |
| < 300 | < 1000 | Cc1csc(CN(C)C(=O)c2cccc(C(=O)N[C@@H](Cc3ccccc3)[C@H](O)CNCc3cncc(N(C)C)c3)c2)n1 [Compound 47, N1-((2S,3R)-4-((5-(dimethylamino)pyridin-3-yl)methylamino)-3-hydroxy-1-phenylbutan-2-yl)-N3-methyl-N3-((4-methylthiazol-2-yl)methyl)isophthalamide] |
| < 300 | < 1000 | COc1cccc(F)c1CNC[C@@H](O)[C@H](Cc1ccccc1)NC(=O)c1cccc(C(=O)N(C)Cc2nc(C)cs2)c1 [Compound 50, N1-((2S,3R)-4-(2-fluoro-6-methoxybenzylamino)-3-hydroxy-1-phenylbutan-2-yl)-N3-methyl-N3-((4-methylthiazol-2-yl)methyl)isophthalamide] |
| < 300 | < 1000 | Cc1csc(CN(C)C(=O)c2cccc(C(=O)N[C@@H](Cc3ccccc3)[C@H](O)CNCc3cccc(C(C)(C)C)c3)c2)n1 [Compound 52, N1-((2S,3R)-4-(3-tert-butylbenzylamino)-3-hydroxy-1-phenylbutan-2-yl)-N3-methyl-N3-((4-methylthiazol-2-yl)methyl)isophthalamide] |
| < 300 | < 1000 | COC(=O)c1cc(CNC[C@@H](O)[C@H](Cc2ccccc2)NC(=O)c2cccc(C(=O)N(C)Cc3nc(C)cs3)c2)cc(OC)c1 [Compound 54, methyl 3-(((2R,3S)-2-hydroxy-3-(3-(methyl((4-methylthiazol-2-yl)methyl)carbamoyl)benzamido)-4-phenylbutylamino)methyl)-5-methoxybenzoate] |
